Measurements as given in patent US20100143262A1, “Method for Identifying Allergenic Proteins And Peptides” (priority 2008, published 2010).

Assays:
[1] = test system: serum IgE of cow's milk allergic patients; assay: IgE binding capacity (IgE reactivity) of milk components with patients' sera; parameters: species or system human; details: sera of cow's milk allergic patients (n=78)
Source text: (§1) Sera from 78 patients who were selected according to a positive case history, positive skin-prick reactions and determination of specific IgE to cow's milk extract using the CAP-FEIA System (Phadia, Uppsala, Sweden) were used. Sera were obtained from five adults and 73 children (30 female and 43 male) from Austria, Germany, Italy, Spain and France.

[2] = test system: Humanized Rat Basophil Leukaemia (RBL) cells (clone RBL-703/21); assay: human RBL assay: β-hexosaminidase release of humanized RBL cells loaded with patients' serum IgE; assay type: cell-based; details: for biological activity (% of patients): percentage of 78 patients' sera triggering β-hexosaminidase release, milk components 0.3 μg/ml; for extent of degranulation relative to the activity of the complete protein: synthetic alphaS1-casein-derived peptides
Source text: A scientifically approved model to test biological reactivity of molecules is induction of histamine release from human basophil granulocytes (Purohit 2005). For this purpose a rat basophil leukaemia cell line expressing the α-chain of the human FcεRI receptor (Hoffmann et al., Int Arch Allergy Immunol, Vol 126(4), p. 277-285) was used. Different milk components (n=33) including whole milk extracts from different species, milk fractions, purified natural and recombinant cow's milk proteins, and recombinant protein fragments were tested. The percentages of 78 patients whose serum IgE antibodies trigger β-hexosaminidase release of the humanized RBL cells in response to the individual milk components were determined (FIG. 3).
as §1
Humanized Rat Basophil Leukaemia (RBL) cells (clone RBL-703/21) were incubated in microtiter plates overnight at 37° C. (7% CO2, 95% humidity) with 50 μl human sera, diluted 1:10. Afterwards cells were washed and exposed to milk components, diluted to 0.3 μg/ml protein in Tyrodes buffer containing 50% D2O and 0.1% BSA/HAS for 1 hour at 37° C. (7% CO2, 95% humidity). Spontaneous release of the cells was also evaluated. Finally, the cell supernatants were incubated with 50 μl assay solution (0.1 M citric acid or sodium citrate, pH 4.5, 160 μM 4-methyl umbelliferyl-N-acetyl-β-D-glucosaminide) in new microtiter plates at 37° C. (7% CO2, 95% humidity) for 1 h. The reactions were stopped by addition of 100 μl glycine buffer per well and the fluorescence measured at λex: 360 and λem: 465 using a fluorescence microplate reader. The specific hexosaminidase release of each sample was calculated using the formula: [(FlS−FlSp):(FlZ−FlSp)]×100 (where […] is the fluorescence of the sample; FlSp is the fluorescence of the spontaneous release and FlZ is the fluorescence of the total release).

patients' serum IgE = assay: microarray IgE reactivity testing of ALA-derived peptides; assay type: binding, human; details: sera from the 36 patients with IgE reactivity to rALA
Protocol: IgE reactivity testing to ALA-derived peptides:IgE reactivities of the ALA-derived peptides were determined by microarray analysis as described (Schulmeister et al., J Immunol. 182(11):7019-29). In brief, milk components were spotted onto a capillary-flow membrane on an ordinary microscope glass slide and incubated with 25 μl of patients' sera. Bound IgE antibodies were detected with a fluorescence-conjugated anti-IgE antibody at a wavelength of 670 nm. The cut off level was set for each patient as the double value of the individual value gained with human serum albumin.
In order to identify IgE-reactive epitopes of ALA, we synthesized 8 peptides spanning the ALA sequence (Table 2). […] The IgE reactivity of the 8 overlapping peptides was evaluated by microarray analysis using sera from the 36 patients showing IgE reactivity to rALA. […] In total 19 of the 36 patients with IgE reactivity to rALA reacted at least with one ALA-derived synthetic peptide.

[3] = test system: IgE of sera from cow's milk allergic patients; assay: dot blot IgE reactivity of nitrocellulose-dotted milk components; assay type: binding, human; details: 1 μg dotted; sera from three cow's milk allergic patients, 1:20
Source text: In FIG. 6 a Mascot search and the identification of beta-casein-derived peptides in hydrolyzed cow's milk is depicted. At the top beta-casein, the only identified milk allergen in mass spectrometry, is mentioned with its molecular mass and calculated pI. Below the search parameters and the obtained sequence coverage of beta-casein are given. […] The beta-casein allergen was identified with peptide matches: HQPHQPLPPT (calculated mass of 1.25 kDa, corresponding to aa 160-170 of beta-casein), VYPFPGPIPN (calculated mass of 1.19 kDa, corresponding to aa 74-84 of beta-casein), SSSEE (calculated mass of 0.65 kDa, corresponding to aa 31-36 of beta-casein), and PVVVPP (calculated mass of 0.87 kDa, corresponding to aa 96-103 of beta-casein). In FIG. 7 IgE reactivity testing of these peptides is shown (Table 1: cas b-1, 2, 3 and 4; FIG. 7). […] IgE reactivity of nitrocellulose-dotted cow's milk (CM), recombinant beta-casein (rBC), synthetic beta-casein-derived peptides (cas b-1, cas b-2, cas b-3, cas b-4), and recombinant alphaS1-casein (rAS1C) were analysed by dot blot assay. Nitrocellulose-bound milk components were incubated with the sera from three cow's milk allergic patients (lanes 1, 2 and 3) and a non-allergic individual (lane C). Bound IgE antibodies were detected with ^125I-labeled anti-IgE antibodies. […] Furthermore, they are different from the published major IgE binding regions of beta-casein (aa 1-16, aa 83-92, aa 135-144; Chatchatee 2001). None of the other IgE-reactive milk allergens and allergen fragments obtained by screening of the cDNA expression library (FIG. 1) were detected in the hydrolyzed milk sample which therefore could be identified as a non-allergenic preparation.
Hydrolyzed milk formula was analyzed by reversed-phase HPLC using a nano liquid chromatography system (Ultimate, LC Packings Dionex, The Netherlands) connected to the nanospray interface of a HCT-Ultra mass spectrometer (Bruker Daltonik, Germany). The obtained mass spectra were searched against the SwissProt protein databank using MASCOT (Matrix Science, London, United Kingdom) software search algorithms. For dot blot analysis 1 μg of protein was dotted onto nitrocellulose, and incubated with sera from milk allergic patients diluted 1:20 in PBST (PBS, 0.5% v/v Tween 20). Bound IgE antibodies were detected with 1:15 diluted ^125I-labelled anti-human IgE antibodies (IBL, Germany).

| Substance | IgE binding (% of patients) [1] | IgE binding (% of patients) (patients' serum IgE) | biological activity (% of patients) [2] | other results |
| --- | --- | --- | --- | --- |
| beta-lactoglobulin variant B [BLGB] | 51.3 % of patients |  | 19.2 % of patients |  |
| RPKHPIKHQGLPQEVLNENLLRFFVAPFPEVC [Cas 1, synthetic peptide of αS1-casein] | 43.6 % of patients |  | 6.4 % of patients |  |
| recombinant alpha-lactalbumin [rALA] | 25.6 % of patients | 100.0 % of patients | 21.8 % of patients | release compared with natural counterpart ([2]; recombinant versus natural alpha-lactalbumin): much higher release than its natural counterpart |
| EQLTKCEVFRELKDLKGYG [Lac1, synthetic ALA-derived peptide] |  | 30.6 % of patients |  |  |
| LKGYGGVSLPEWVCTTFHTS [Lac2, synthetic ALA-derived peptide] |  | 33.3 % of patients |  |  |
| PLGTQYTDAPSFSDIPNPIGSENSEKTTMPLWC [Cas 6, synthetic peptide of αS1-casein] | 37.2 % of patients |  | 7.7 % of patients | extent of degranulation relative to the activity of the complete protein [2]: one fourth |
| ISCDKFLDDDLTDDIMCVKK [Lac6, synthetic ALA-derived peptide] |  | 2.8 % of patients |  |  |
| PVVVPPFL [cas b-4, synthetic peptide of β-casein] |  |  |  | IgE reactivity (dot blot) [3]: not IgE-reactive |
| CPMIGVNQELAYFYPELFRQFYQLDAYPSGAWYYV [Cas 5, synthetic peptide of αS1-casein] | 41.0 % of patients |  | 5.1 % of patients | extent of degranulation relative to the activity of the complete protein [2]: about a tenth |
| HQPHQPLPPTV [cas b-1, synthetic peptide of β-casein] |  |  |  | IgE reactivity (dot blot) [3]: not IgE-reactive |
| LSSSEE [cas b-3, synthetic peptide of β-casein] |  |  |  | IgE reactivity (dot blot) [3]: not IgE-reactive |
| recombinant beta-lactoglobulin [rBLG] | 23.1 % of patients |  | 12.8 % of patients |  |
| alpha-casein [AC] | 50.0 % of patients |  | 25.6 % of patients |  |
| sheep serum albumin [SSA] | 1.3 % of patients |  | 2.6 % of patients |  |
| VYPFPGPIIPNS [cas b-2, synthetic peptide of β-casein] |  |  |  | IgE reactivity (dot blot) [3]: not IgE-reactive |

Now from value to substance, other results behind:

| IgE binding (% of patients) [1] | IgE binding (% of patients) (patients' serum IgE) | Substance | biological activity (% of patients) [2] | other results |
| --- | --- | --- | --- | --- |
|  | 11.1 % of patients | LAHKALCSEKLDQWLCEKL [Lac8, synthetic ALA-derived peptide] |  |  |
| 30.8 % of patients |  | kappa-casein [KC] | 25.6 % of patients |  |
|  | 0 % of patients | TFHTSGYDTQA1YQNNDSTE (TFHTSGYDTQAIYQNNDSTE) [Lac3, synthetic ALA-derived peptide] |  |  |
| 6.4 % of patients |  | bovine serum albumin [BSA] | 2.1 % of patients |  |
| 21.8 % of patients |  | recombinant kappa-casein [rKC] | 6.4 % of patients |  |
| 65.4 % of patients |  | alpha-lactalbumin [ALA] | 11.5 % of patients |  |
| 15.4 % of patients |  | FGKEKVNELSKDIGSESTEDQAMEDIKQMEAES [Cas 2, synthetic peptide of αS1-casein] | 3.8 % of patients | extent of degranulation relative to the activity of the complete protein [2]: one fourth |
| 46.2 % of patients |  | ISSSEEIVPNSVEQKHIQKEDVPSERYLGYEQLLRC [Cas 3, synthetic peptide of αS1-casein] | 2.6 % of patients | extent of degranulation relative to the activity of the complete protein [2]: about a tenth |
|  | 2.8 % of patients | MCVKKILDKVGINYWLAHKA [Lac7, synthetic ALA-derived peptide] |  |  |
| 35.9 % of patients |  | CLKKYKVPQLEIVPNSAEERLHSMKEGIHIAQQKE [Cas 4, synthetic peptide of αS1-casein] | 3.8 % of patients | extent of degranulation relative to the activity of the complete protein [2]: about a tenth |
|  | 5.6 % of patients | NDSTEYGLFQINNK1WCKDD (NDSTEYGLFQINNKIWCKDD) [Lac4, synthetic ALA-derived peptide] |  |  |
|  | 2.8 % of patients | WCKDDQNPHSSNICNISCDK [Lac5, synthetic ALA-derived peptide] |  |  |
